The test system of data set [1] is HeLa cells. As to the kind of experiment: Penetration of Lissamine Rhodamine-labeled synthetic peptides into intact cultured cells, fluorescence microscopy. The data set is classed as cell-based. Particulars: for co-penetration of free fluorophore LR into intact HeLa cells: mixture of unlabeled S413 and free LR, versus LR alone; for cell penetration and intracellular localization in intact HeLa cells (FIG. 1): 37° C., 5 μM; for cell penetration and intracellular localization in intact HeLa cells (FIG. 1) / cell penetration and nuclear accumulation in intact HeLa cells (FIG. 3): 30 minutes; for cell penetration and nuclear accumulation in intact HeLa cells (FIG. 3): 10 μM Rev at 37° C., 2 μM of RR-S413. The protocol: HeLa cells (3×10^4 per well) were cultured on eight-well Lab-Teck cover slips (Nunc Inc.) or on 10-mm cover slips to sub confluent density. Following the removal of the culture medium, the cells were washed three times with PBS and then exposed to different concentrations of the Lissamine Rhodamine-labeled peptides at 37° C. or at 4° C. At the end of the incubation period the cells were washed three times in PBS and fixed in 4% (v/v) formaldehyde dissolved in PBS. Fixed cells were examined by fluorescence microscopy (Zeiss Germany, a 40× objective; Apoplan) or by confocal microscopy using an MRC 1024 confocal imaging system (Bio-Rad). The microscope (Axiovert 135M; Zeiss Germany, a 63× objective; Apoplan; NA 1.4) was equipped with an argon ion laser for Rhodamine excitation at 514 nm (emission 580).
Following fixation, the various samples were examined by fluorescence microscopy.
Synthetic peptides bearing Tat and Rev ARM sequences were synthesized and fluorescently labeled as described. […]

Another data set deals with cultured cells. As to the kind of experiment: Effect of the peptides on cell viability (Trypan Blue). Particulars: for toxicity to the cells (cell viability): at concentrations up to about 15 μM; for toxicity to cells, Trypan Blue test: at the concentrations used, 37° C., 30 minutes. The data set is classed as cell-based. The protocol: Following incubation at 37° C. for 30 minutes 100 ml, Trypan Blue solution was added (0.4% in HBSS buffer; Sigma) and HBSS buffer (5:3) and viable cells counted after 5 minutes of continuous stirring. Cell death was not greater than 20%.

A further data set relates to permeabilized HeLa cells. As to the kind of experiment: Nuclear uptake in digitonin-permeabilized cells, fluorescence microscopy. The data set is classed as cell-based. The arrangement: key to Nuclear Import of PV-S413 / Nuclear uptake: +: Most of the nuclei in the microscopic fields are highly fluorescent; −: No fluorescence in the nuclei; +/−: Most of the nuclei are very weakly fluorescent. The procedure:
FIGS. 2a-d: Nuclear import of PV-S413 in permeabilized HeLa cells: fluorescence microscopy observations. All experimental conditions were as described in Experimental Procedures and in legend to Table 3. Digitonin permeabilized HeLa cells were incubated in the presence of reticulocyte extract at 30° C. for 1 hour with 1 μM of the following:
HeLa cells were cultivated on 10 mm cover slips to sub confluent density and then permeabilized with digitonin as described previously [Friedler, A. et al. (1998) Biochemistry 37, 5616-5622]. The cells were incubated with the peptides and nuclear import was followed by fluorescence microscopy as described [Friedler, A. et al. (1998) id ibid.].
Experimental conditions of nuclear import in digitonin-permeabilized cells (complete system) were as described. PV-S413 was used at 1 mM and all incubations were performed at 37° C. in the presence of reticulocyte lysate, unless otherwise indicated. Additions: GTPγS (20 mM) and the following unlabeled peptides SV40 T-Ag NLS, S413 and PV-S413 at a ratio of 1:100 (mol/mol).
Unlabeled peptides RR-S413, SV40 T-Ag-NLS, Rev and Tat ARM were added at a peptide ratio of 1:100 (mole/mole).

Another data set relates to erythrocytes. Particulars: cited from earlier work.
Data set [2] deals with HeLa cells. Put plainly: Microinjection of the peptides into HeLa cells, nuclear import. Particulars: 1 μM, 2 hours after incubation at 37° C. It is filed as cell-based. The procedure:
FIGS. 4a-d: Nuclear import of S413 and RR-S413 in microinjected cells. HeLa cells were microinjected with the fluorescently labeled peptides S413 and RR-S413 (1 μM). The injection mixture also included fluorescently labeled BSA as an injection control (data not shown). Photos were taken 2 hours after incubation at 37° C.
HeLa cells were microinjected with either S413 or with RR-S413 using the CompInject AIS2 automated microinjection system (Cell Biology Trading, Hamburg, Germany) as described previously [Neumann, M. et al. (2001) J. Cell Sci. 114, 1717-29] using a microinjection method developed by Graessmann et al., as described [Graessmann, M. and Graessmann, A. (1983) Methods Enzymol. 101, 482-492].

Here are results for nine compounds from patent US20040132970A1, “Dermaseptin-derived peptides and their use in delivery systems” (priority 2002, published 2004).

Entries after “also recorded” stand apart in the source; their conditions may differ. Ends that are not written are not given here.

For the compound `CCN(CC)c1ccc2c(-c3ccc(S(=O)(=O)O)cc3S(=O)(=O)[O-])c3ccc(=[N+](CC)CC)cc-3oc2c1` [L-Rhodamine, Lissamine Rhodamine, reference compound], the “co-penetration of free fluorophore LR into intact HeLa cells” value in the data set on HeLa cells [1] is on record as “did not occur”.
With “GRKKRRQRRRPPQC-NH2 [Tat-ARM, reference compound]”, the “toxicity to the cells (cell viability)” value with cultured cells was “not toxic”.
As for PKKKRKVALWKTLLKKVLKA-NH2 [PV-S413], the “intracellular localization in intact HeLa cells at 4° C.” value in the data set with HeLa cells [1] (4° C.) is on record as “retained in the cytoplasm”. In the data set on HeLa cells [1], the “cell penetration and intracellular localization in intact HeLa cells (FIG. 1)” value is “cell penetration and accumulation within the cells' nuclei”. In addition, the “toxicity to cells, Trypan Blue test” value in the data set with cultured cells is recorded as “not toxic”. The “ATP dependence of nuclear import in permeabilized HeLa cells” value in the data set on permeabilized HeLa cells was “ATP-dependent”. Also, the “nuclear import in permeabilized HeLa cells at 4° C.” value in the data set with permeabilized HeLa cells (4° C.) is “did not occur”. The “Nuclear Import of PV-S413” value in the data set with permeabilized HeLa cells ((i) Complete System: 1 mM peptide, 37° C., reticulocyte lysate) is reported as “+”; in the data set with permeabilized HeLa cells ((ii) Hexokinase (ATP depleted system)) it was “−”; in the data set with permeabilized HeLa cells ((iii) As (i), in the absence of reticulocyte extract) it was “−”; in the data set with permeabilized HeLa cells ((iv) As (i) at 4° C.), “−”; in the data set on permeabilized HeLa cells ((v) As (i) + GTPγS (20 mM)) it was “−”; with permeabilized HeLa cells ((vi) As (i) + unlabeled SV40-NLS, 1:100 (mol/mol)), “+/−”. Further, the “Nuclear Import of PV-S413” value was “+” in the data set with permeabilized HeLa cells ((vii) As (i) + unlabeled S413, 1:100 (mol/mol)) and “+/−” in the data set with permeabilized HeLa cells ((viii) As (i) + unlabeled PV-S413, 1:100 (mol/mol)). Also, in the data set with permeabilized HeLa cells (permeabilized HeLa cells), the “effect of GTPγS, WGA and excess of free unlabeled SV40 T-Ag-NLS peptide on nuclear import” value is “inhibited”.
Take “ALWKTLLKKVLKAPKKKRKV-NH2 [Peptide S413-PV]”: in the data set on cultured cells, the “toxicity to cells, Trypan Blue test” value is listed as “not toxic”.
As to “ALWMTLLKKVLKAAAKAALNAVLVGANA-COOH (ALWMTLLKKVLKAAAKAALNAVLVGANA-OH) [Peptide S4, reference compound]”, the toxicity to erythrocytes entry in the data set on erythrocytes is on record as “highly toxic”.
“RQARRNRRRC-NH2 [Rev-ARM, reference compound]”: the “cell penetration and nuclear accumulation in intact HeLa cells (FIG. 3)” value in the data set with HeLa cells [1] is on record as “cell permeable”. For the same compound, the “toxicity to the cells (cell viability)” value in the data set on cultured cells was “not toxic”.
For the compound RQARRNRRRALWKTLLKKVLKA-NH2 [RR-S413], the “cell penetration and nuclear accumulation in intact HeLa cells (FIG. 3)” value in the data set with HeLa cells [1] is “readily penetrated into intact HeLa cells and accumulated—within a short period of time—within the nuclei of these cells”. For the same compound, the “toxicity to the cells (cell viability)” value in the data set with cultured cells is reported as “not toxic”. Besides, the Nuclear uptake result was “−” with permeabilized HeLa cells (ATP depleted cells); “+” in the data set with permeabilized HeLa cells (In the absence of cytosolic factors); “+/−” in the data set on permeabilized HeLa cells (In the presence of cytosolic factors); “+/−” in the data set with permeabilized HeLa cells (In the presence of unlabeled RR-S413, 1:100 (mole/mole)); “−” with permeabilized HeLa cells (In the presence of unlabeled Rev-ARM, 1:100 (mole/mole)); “+” with permeabilized HeLa cells (In the presence of unlabeled SV40 T-Ag NLS, 1:100 (mole/mole)). Further, the Nuclear uptake result was “+/−” in the data set with permeabilized HeLa cells (In the presence of unlabeled Tat-ARM, 1:100 (mole/mole)) and “−” with permeabilized HeLa cells (Incubation in 4° C.). The “nuclear import in digitonin permeabilized HeLa cells” value in the data set on permeabilized HeLa cells (no addition of cytosolic extract required) is listed as “Nuclear import was also observed”. In addition, the “localization following microinjection into intact HeLa cells (FIG. 4)” value in the data set on HeLa cells [2] is “accumulated within the intranuclear space; also recorded: accumulated in the nuclei”.
ALWKTLLKKVLKA-NH2 [Peptide S413]: the “time of incubation within which penetration into cultured HeLa cells occurs” value in the data set with HeLa cells [1] (1 μM of the peptide, either at 37° C. or at 4° C.) was not above 5 min. For the same compound, in the data set with HeLa cells [1], the “cell penetration and intracellular localization in intact HeLa cells (FIG. 1)” value was “accumulated within the cells' cytoplasm and not in the cells' nuclei”; the “co-penetration of free fluorophore LR into intact HeLa cells” value was “a few intracellular fluorescent dots”. The “nuclear localization after long incubation” value in the data set with HeLa cells [1] (24 hours after incubation at 37° C.) is on record as “very little, if any, nuclear localization”. In the data set on HeLa cells [1] (ATP depleted cells), the “penetration into intact cells in ATP depleted cells” value was “occurred”. In addition, the “toxicity to cells, Trypan Blue test” value in the data set on cultured cells is “non-toxic”. For the same compound, the “penetration into nuclei of digitonin permeabilized HeLa cells (FIG. 2)” value with permeabilized HeLa cells (1 μM, reticulocyte extract, 30° C., 1 hour) is “did not penetrate”. The “localization following microinjection into intact HeLa cells (FIG. 4)” value with HeLa cells [2] is reported as “retained in the cytoplasm; also recorded: remained in the cytoplasm”.
As to VKRKKKPALWKTLLKKVLKA-NH2 [rPV-S413], in the data set on HeLa cells [1], the “cell penetration and intracellular localization in intact HeLa cells (FIG. 1)” value was “very little, if any, accumulation within the cells' nuclei/nucleoli”. Further, the “nuclei accumulation in permeabilized HeLa cells” value in the data set with permeabilized HeLa cells (both in the presence and in the absence of the cytosolic extract) was “either did not accumulate or showed poor nuclei accumulation”.
